Test results: patent US10766882B2, “1,2-naphthoquinone based derivative and method of preparing the same” (YUNGJIN PHARM. CO., LTD., priority 2013, dated 2020)

Test system: C57BL/6J Lep ob/ob mice
Assay: Weight loss effects in obese mice (ob/ob)
Format: in vivo
Settings: vs 0.1% SLS controls
Outline: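 Male-unspecified C57BL/6J Lep ob/ob mice (6–15 weeks old, n=3 per group) on low-fat chow received compound by daily oral gavage (40–150 mg/kg, 10 ml/kg) for 6 days to 2 weeks, with 0.1% SLS vehicle as control. Body weight was recorded daily, gain calculated from day 1 to the day before termination, and food intake measured twice weekly.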

[1] = Exp. Ex. 3-1, FIG. 1: 10 week-old ob/ob mice, 40, 80, 120 mg/kg oral once every day, two weeks
[2] = Exp. Ex. 3-2, FIG. 2: 6 week-old ob/ob mice, 100 mg/kg oral
[3] = Exp. Ex. 3-10, FIG. 13: 6 week-old ob/ob mice, 100 mg/kg oral, two weeks
[4] = Exp. Ex. 3-11, FIG. 14: 6.5 week-old ob/ob mice, 100 mg/kg oral, one week
[5] = Exp. Ex. 3-12, FIG. 15: 6 week-old ob/ob mice, 100 mg/kg oral, two weeks
[6] = Exp. Ex. 3-13, FIG. 16: 6 week-old ob/ob mice, 100 mg/kg oral, one week

CC(C)c1nc2c([nH]1)C(=O)C(=O)c1ccccc1-2 [Example 1, 2-isopropyl-1H-naphtho[2,1-d]imidazole-4,5-dione]
intake amount [1]: significantly decreased
weight change [1]: significantly decreased
weight increase ratio [1]: significantly decreased
intake amount [2]: significantly decreased
weight change [2]: significantly decreased
weight increase ratio [2]: significantly decreased
intake amount [3]: significantly decreased in some sections
weight change [3]: significantly decreased in some sections
weight increase ratio [3]: significantly decreased in some sections
intake amount [4]: significantly decreased in some sections
weight change [4]: significantly decreased in some sections
weight increase ratio [4]: significantly decreased in some sections
intake amount [5]: significantly decreased in some sections
weight change [5]: significantly decreased in some sections
weight increase ratio [5]: significantly decreased in some sections
intake amount [6]: significantly decreased in some sections
weight change [6]: significantly decreased in some sections
weight increase ratio [6]: significantly decreased in some sections
